This passage reports pest or weed control, Corn plant response rating (crop injury, 0 = no effect, 100 = complete kill) and plant injury results from patent US12077503B2, “Substituted cyclic amides and their use as herbicides” (FMC CORPORATION, priority 2015, dated 2024).

Assay type in all cases: in vivo
For assay [1], the system named is giant foxtail (Setaria faberii). Nature of the assay: Test A preemergence. The note with it: Setaria faberi, pre-emergence, 240 h. The gist of the method: (§1)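 Each rating is a visual injury score from 0 to 100 given about 10 d after treatment, judged against untreated controls kept alongside in the greenhouse. In loam soil–sand blend, seeds got a preemergence directed soil spray, while postemergence plants were 2 to 10 cm tall at spraying.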

The test system of assay [2] is Galium (catchweed bedstraw, Galium aparine). Nature of the assay: Test A postemergence. The settings on record: Galium, post-emergence, 240 h, 125 g ai/ha, Postemergence; visual injury after approximately 10 d; 0 to 100 scale where 0 is no effect and 100 is complete control; read-out: Plant response rating, Galium. The gist of the method:
as §1

The subject of assay [3] is Kochia (Kochia scoparia). Nature of the assay: Test A postemergence. The settings on record: Bassia scoparia, post-emergence, 240 h, 125 g ai/ha, Postemergence; visual injury after approximately 10 d; 0 to 100 scale where 0 is no effect and 100 is complete control; read-out: Plant response rating, Kochia. The gist of the method:
as §1

The subject of assay [4] is barnyardgrass (Echinochloa crus-galli). Nature of the assay: Test A postemergence. The note with it: Echinochloa crus-galli, post-emergence, 240 h, 125 g ai/ha, Postemergence; visual injury after approximately 10 d; 0 to 100 scale where 0 is no effect and 100 is complete control; read-out: Plant response rating, Barnyardgrass. The gist of the method: as §1
The subject of assay [5] is blackgrass (Alopecurus myosuroides). Nature of the assay: Test A postemergence. The note with it: Alopecurus myosuroides, post-emergence, 240 h, 125 g ai/ha, Postemergence; visual injury after approximately 10 d; 0 to 100 scale where 0 is no effect and 100 is complete control; read-out: Plant response rating, Blackgrass. The gist of the method: as §1
The subject of assay [6] is corn (Zea mays). Nature of the assay: Test A postemergence. The note with it: Zea mays, post-emergence, 240 h, 125 g ai/ha, Postemergence; visual injury after approximately 10 d; 0 to 100 scale where 0 is no effect and 100 is complete control. The gist of the method: as §1
The test system of assay [7] is giant foxtail (Setaria faberii). Nature of the assay: Test A postemergence. The settings on record: Setaria faberi, post-emergence, 240 h, 125 g ai/ha, Postemergence; visual injury after approximately 10 d; 0 to 100 scale where 0 is no effect and 100 is complete control; read-out: Plant response rating, Foxtail, Giant. The gist of the method: as §1
The subject of assay [8] is pigweed (Amaranthus retroflexus). Nature of the assay: Test A postemergence. The note with it: Amaranthus retroflexus, post-emergence, 240 h, 125 g ai/ha, Postemergence; visual injury after approximately 10 d; 0 to 100 scale where 0 is no effect and 100 is complete control; read-out: Plant response rating, Pigweed. The gist of the method: as §1
For assay [9], the system named is ragweed (common ragweed, Ambrosia elatior). Nature of the assay: Test A postemergence. The settings on record: Ambrosia artemisiifolia, post-emergence, 240 h, 125 g ai/ha, Postemergence; visual injury after approximately 10 d; 0 to 100 scale where 0 is no effect and 100 is complete control; read-out: Plant response rating, Ragweed. The gist of the method:
as §1

In assay [10] the test system is ryegrass, Italian (Italian ryegrass, Lolium multiflorum). Nature of the assay: Test A postemergence. The note with it: Lolium multiflorum, post-emergence, 240 h, 125 g ai/ha, Postemergence; visual injury after approximately 10 d; 0 to 100 scale where 0 is no effect and 100 is complete control; read-out: Plant response rating, Ryegrass, Italian. The gist of the method:
as §1

Assay [11] concerns wheat (Triticum aestivum). Nature of the assay: Test A postemergence. The note with it: Triticum aestivum, post-emergence, 240 h, 125 g ai/ha, Postemergence; visual injury after approximately 10 d; 0 to 100 scale where 0 is no effect and 100 is complete control; read-out: Plant response rating, Wheat. The gist of the method: as §1
In assay [12] the test system is barnyardgrass (Echinochloa crus-galli). Nature of the assay: Test B flooded paddy test. The note with it: Echinochloa crus-galli, Flood, 250 g ai/ha; scale of 0 to 100 where 0 is no effect and 100 is complete control; read-out: Barnyardgrass plant response rating. The gist of the method:
(§2)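 Response scored visually against untreated controls, 0 = no effect and 100 = complete control, 13–15 d after treatment in the greenhouse. Compounds added to paddy water held 3 cm above soil surface. Treatment given at 2-leaf stage.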

Assay [13] relates to ducksalad (Heteranthera limosa). Nature of the assay: Test B flooded paddy test. The settings on record: Heteranthera limosa, Flood, 250 g ai/ha; scale of 0 to 100 where 0 is no effect and 100 is complete control; read-out: Ducksalad plant response rating. The gist of the method:
as §2

Assay [14] has as its system rice (Oryra sativa). Nature of the assay: Test B flooded paddy test. The note with it: Oryza sativa, Flood, 250 g ai/ha; scale of 0 to 100 where 0 is no effect and 100 is complete control; read-out: Rice plant response rating. The gist of the method:
as §2

The test system of assay [15] is sedge, umbrella (small-flower umbrella sedge, Cyperus difformis). Nature of the assay: Test B flooded paddy test. The settings on record: Cyperus difformis, Flood, 250 g ai/ha; scale of 0 to 100 where 0 is no effect and 100 is complete control; read-out: Sedge, Umbrella plant response rating. The gist of the method:
as §2

Turning to `CON1CC[C@H](c2ccc(F)cc2)[C@@H](C(=O)Nc2cccc(F)c2F)C1=O` [Compound 918], the pest or weed control at 125 g/ha came out at 20% in [1] (125 g ai/ha, preemergence, 0 to 100 scale where 0 is no effect and 100 is complete control, read-out: Foxtail, Giant plant response rating); 0% in assay [2]; 0% in assay [3]; 0% in assay [4]; 40% in assay [5]; 0% in [7]. Besides, the pest or weed control at 125 g/ha in [8], in [9] and in [10] was 0% throughout. In [1] (500 g ai/ha, Preemergence, visual injury vs untreated controls after approximately 10 d, read-out: Foxtail, Giant plant response rating (0 to 100 scale where 0 is no effect and 100 is complete control)), the pest or weed control at 500 g/ha came out at 70%. For the same compound, the Corn plant response rating (crop injury, 0 = no effect, 100 = complete kill) at 125 g/ha in [6] came to 0%. Also, in [11], the plant injury at 125 g/ha came to 0%. Besides, the pest or weed control at 250 g/ha in assay [12] was determined as 0%; in assay [13], 30%; in assay [14], 15%; in assay [15] it was 0%.
